These results are taken from patent publication US9604974B2, “Compounds as modulator of JAK-STAT pathway, methods and applications thereof” (UNIVERSITY OF MYSORE, priority 2015, dated 2017).

Test [1] concerns CAL27 (head and neck cancer cell line). The test is described as follows: MTT anti-proliferative assay, CAL27. The format is cell-based. The note with it: Homo sapiens, CAL-27. As for the experimental part: The anti-proliferative activity of Formula I compounds are studied on HepG2 cells using MTT assay. Briefly, the cells (2.5×10^4/ml) are incubated in triplicate in a 96-well plate in the presence or absence of different concentrations of compounds in a final volume of 0.2 ml up to 72 hours at 37° C. Thereafter, 20 μl MTT solution (5 mg/ml in PBS) is added to each well. After 2 hours of incubation at 37° C., 0.1 ml lysis buffer (20% SDS, 50% dimethyl-formamide) is added; incubation is continued overnight at 37° C.; and the optical density (OD) at 570 nm is measured by Tecan plate reader.
Additionally, Compound 1 is tested on a panel of six cell lines including Hep3B, PLC/PRF5, AGS (gastric cancer cell line), DU145 (prostrate cancer cell line), MDA MB231 (breast cancer cell line) and CAL27 (head and neck cancer cell line) cells.
In general terms: Tetrazolium assays rely on reduction of a dye to a coloured formazan, in cell work by metabolically active cells.

The test system of test [2] is HepG2 cells. The test is described as follows: Cell cycle distribution by PI flow cytometry (sub-G1). It counts as cell-based, human. The note with it: HepG2, 10 μMol/L CIMO. How it is done: FIG. 1 depicts the accumulation of HepG2 cells in SubG1 phase caused by Compound 1 (CIMO). HepG2 cells (5×10^5/mL) are treated with 10 μMol/L CIMO for indicated time points, after which the cells are washed, fixed, stained with PI, and analyzed for DNA content by flow cytometry.
In late apoptosis, activation of endonucleases leads to fragmentation of genomic DNA into oligomers thereby contributing to a decrease in DNA content, which in turn leads to the buildup of cells in Sub-G1 phase. In order to evaluate the effect of Compound 1 on cell cycle distribution of HepG2 cells, flow cytometric analysis is performed. HepG2 cells are treated with CIMO at different time intervals up to 48 hours. Thereafter, cells are washed, fixed with 70% ethanol, and incubated for about 30 minutes about at 37° C. with 0.1% RNaseA in PBS. Cells are then washed again, resuspended, and stained in PBS containing 25 μg/ml propidium iodide (PI) for about 30 minutes at room temperature. Cell distribution across the cell cycle after PI staining is analyzed with a Beckman Coulter flow cytometer.
(In general: In flow cytometry, cells or beads pass a laser one at a time.)

Test [3] concerns STAT3. The test is described as follows: Immunocytochemistry of STAT3 nuclear translocation. It counts as cell-based, human. The note with it: HepG2, 10 μMol/L, about 6 hours. As for the experimental part:
HepG2 cells are plated in chamber slides in DMEM containing 10% FBS and allowed to adhere for about 24 hours. Following treatment with CIMO for about 6 hours, the cells are fixed with cold acetone for about 10 minutes, washed with PBS and blocked with 5% normal goat serum for about 1 hour. The cells are then incubated with rabbit polyclonal anti-human STAT3 Antibody (dilution, 1/100). After overnight incubation, the cells are washed and then incubated with goat anti-rabbit IgG-Alexa 594 ( 1/100) for about 1 hour and counterstained for nuclei with Hoechst (50 ng/ml) for about 5 minutes. Stained cells are mounted with mounting medium (Sigma-Aldrich) and analyzed under a fluorescence microscope (DP 70, Olympus, Tokyo, Japan).

A further test relates to JAK1. Kind of test: Western blot of constitutive phospho-JAK1 in HepG2. The format is cell-based, human. The note with it: HepG2, 10 μMol/L CIMO. On the technique in general: A western blot detects proteins with antibodies after separation by electrophoresis.
Test [4] relates to STAT3. The test is described as follows: IL-6 induced STAT3 phosphorylation in Hep3B. The note with it: 10 μMol/L CIMO, IL-6 10 ng/mL. It counts as cell-based. As for the experimental part:
FIG. 3 depicts comparative study of cell viability between STAT3-siRNA transfected and Compound 1 (CIMO) treated HepG2 cells [A]. Correspondingly, Western Blot analysis is used to assess the levels of phospho-STAT3 and STAT3 in HepG2 cells with siRNA-mediated depletion STAT3 expression and on exposure to 4 μM CIMO. Whole cell extract is prepared and resolved on SDS-PAGE gel, electrotransferred onto nitrocellulose membrane, and probed for phospho-STAT3 and the same blot is stripped and reprobed with STAT3 antibody and Beta actin to verify equal protein loading. [B] showcases the modulation of STAT3 mediated transcription, α2-M promoter activity by Compound 1 (CIMO) in HepG2 cells. [C] depicts the inhibition of IL-6-induced phosphorylation of STAT3, JAK1 and JAK2 by Compound 1 (CIMO). Hep3B cells (5×10^5/mL) are treated with 10 μMol/L CIMO for the indicated times and then stimulated with IL-6 (10 ng/mL) for about 15 minutes. Whole-cell extracts are then prepared, resolved on SDS-PAGE gel, electrotransferred onto nitrocellulose membrane and probed with phospho-STAT3, phospho-JAK1 and phospho-JAK2 antibodies. The same blot is stripped and reprobed with STAT3, JAK1 and JAK2 antibody to verify equal protein loading. [D] and [E], showcases the suppression of STAT3 regulated gene products involved in cell proliferation and survival by Compound 1 (CIMO). […]

Test [5] has as its system HepG2 cells. The test is described as follows: Matrigel invasion assay. It counts as cell-based, human. The note with it: 5 μMol/L CIMO, presence and absence of CXCL12. As for the experimental part:
FIG. 5 depicts inhibition of cell migration by Compound 1 (CIMO) [A]. 70 μl HepG2 cells (5×10^5/mL) are seeded into each compartments of culture insert and insert is removed after about 12 hours. Width of the wound is measured initially and incubation is carried out with and without CIMO (5 μM, for about 8 hours) and CXCL12 (100 ng/mL, for about 24 hours). [B] Inhibition of cell invasion by Compound 1 (CIMO). HepG2 (2×10^5) cells are seeded in the top chamber of BD BioCoat™ Matrigel™. After pre-incubation with or without 5 μMol/L CIMO for about 8 hours, transwell chambers are placed into the wells of a 24-well plate which contains either only basal medium or basal medium with CXCL12 (100 ng/mL) for about 24 hours. After incubation, the chambers are assessed for cell invasion by staining with crystal violet.
In case of the invasion assay, the said assay is performed wherein BD (Biocoat™ Matrigel™) Invasion chamber with 8 μm pores in the light-tight polyethylene terephthalate membrane is taken and is coated with a reconstituted basement membrane gel (BD Biosciences). 2×10^5 cells are suspended in serum-free DMEM and seeded into the Matrigel Transwell chambers. The cells are incubated with CIMO for about 8 hours. […] The invading cells are then counted in five randomly selected areas under microscopic observation.

In test [1], `COc1ccc(C2CNC(c3cn(Cc4ccc(-c5ccccc5C#N)cc4)c4ccccc34)OC23CCCCC3)cc1` (stereo not drawn) [Compound 1] registered a 50% inhibitory concentration (IC50) of 27.1 µM. Also, the sub-G1 cell population with HepG2 cells [2] (16 hours) is 18.8%; in the test with HepG2 cells [2] (24 hours) it was 38.7%; with HepG2 cells [2] (36 hours), 71%; with HepG2 cells [2] (48 hours) it was 92.1%. For the same compound, the “STAT3 in the nucleus” value with STAT3 [3] is “significant decrease”. Besides, in the test on JAK1, the “phosphorylation of JAK1” value is “significant inhibition”. Moreover, the “IL-6 induced phosphorylation of STAT3” value with STAT3 [4] is on record as “substantially down-regulates”. In the test with HepG2 cells [5], the “inhibition of HepG2 cells motility (invasion)” value is recorded as “more than 50%”.

For orientation: IC50 means the concentration that inhibits the measured activity by half.
